Reference: EPA's ToxRefDB 2

Key:
mouse [1] = settings: Prenatal developmental toxicity study, other, Injection, Intraperitoneal, dose end: 15 GD
rat [2] = settings: Fertility (Segment I); wistar; Injection; Subcutaneous; group: parental; systemic / organ weight / prostate / nos
rat [3] = settings: Subchronic oral toxicity in rodents, fischer, Feed, dose end: 13 week, group: systemic
dog [4] = settings: Chronic toxicity; beagle; Oral; Feed; dose end: 52 week; group: systemic; systemic / organ weight / thyroid gland / absolute + systemic / organ weight / thyroid gland / relative to body weight + systemic / …
rat [5] = settings: Multigenerational reproductive toxicity study, sprague dawley, Oral, Feed, dose end: 2 generation, group: parental
rabbit = settings: Prenatal developmental toxicity study, new zealand white, Oral, Gavage/Intubation, dose end: 19 GD, group: maternal
rat [6] = settings: Subchronic oral toxicity in rodents, sprague dawley, Feed, dose end: 3 month, group: systemic, systemic / clinical chemistry / glucose / glucose + systemic / hematology / erythrocyte (rbc) count differential / erythrocyte (rbc) + …
dog [7] = settings: Subchronic oral toxicity in nonrodent, beagle, Feed, dose end: 15 week, group: systemic, systemic / organ weight / liver / absolute + systemic / organ weight / liver / relative to body weight + systemic / pathology microscopic / …
rat [8] = settings: Prenatal developmental toxicity study, other, Oral, Gavage/Intubation, dose end: 15 GD
mouse [9] = settings: Carcinogenicity; cd1; Oral; Feed; dose end: 18 month; group: systemic; systemic / in life observation / body weight / body weight + systemic / in life observation / body weight / body weight gain + systemic / in…
dog [10] = settings: Chronic toxicity; beagle; Oral; Feed; dose end: 52 week; group: systemic; systemic / in life observation / body weight / body weight gain
dog [11] = settings: Subchronic oral toxicity in nonrodent, beagle, Feed, dose end: 6 month, group: systemic
rat [12] = settings: Prenatal developmental toxicity study, sprague dawley, Oral, Gavage/Intubation, dose end: 15 GD
dog [13] = settings: Subchronic oral toxicity in nonrodent, beagle, Feed, dose end: 6 month, group: systemic; remark: listed apart in the source
[14] = group: developmental, developmental / developmental malformation / bone / misshapen + developmental / developmental malformation / bone / short + developmental / …
[15] = group: maternal, reproductive / reproductive performance / resorptions / resorptions
[16] = systemic / in life observation / body weight / body weight + systemic / in life observation / food consumption / food consumption + systemic…
[17] = systemic / in life observation / body weight / body weight + systemic / pathology microscopic / thyroid gland / hyperplasia
[18] = systemic / pathology microscopic / thyroid gland / hyperplasia + systemic / pathology microscopic / thyroid gland / hypertrophy + systemic…
[19] = systemic / in life observation / clinical signs / tremors
[20] = systemic / in life observation / clinical signs / tremors + reproductive / reproductive performance / aborted / aborted + systemic / …
[21] = group: developmental, developmental / developmental malformation / bone / incomplete ossification + systemic / in life observation / body weight / fetal weight
[22] = group: maternal, systemic / hematology / hematocrit (hct) / hematocrit (hct) + systemic / hematology / hemoglobin (hgb) / hemoglobin (hgb) + systemic / …
[23] = systemic / in life observation / body weight / body weight gain
[24] = systemic / in life observation / body weight / body weight gain + systemic / in life observation / food consumption / food consumption
[25] = group: developmental, systemic / in life observation / body weight / fetal weight
[26] = group: maternal, reproductive / reproductive performance / implantations / implantations + systemic / in life observation / body weight / body weight gain + …

Work on `NC(=O)N1c2ccccc2C=Cc2ccccc21` [Carbamazepine] yielded an LEL (mouse [1]; [14]) of 15 mg/kg/day, an LOAEL (mouse [1]; [14]) greater than 30 mg/kg/day and an NEL (mouse [1]; [14]) of less than 15 mg/kg/day. It also gave an NOAEL (mouse [1]; [14]) of no less than 30 mg/kg/day, an LEL (mouse [1]; [15]) of 15 mg/kg/day and an LOAEL (mouse [1]; [15]) greater than 30 mg/kg/day. The NEL (mouse [1]; [15]) was less than 15 mg/kg/day, the NOAEL (mouse [1]; [15]) was no less than 30 mg/kg/day and the LEL (rat [2]) was 20 mg/kg/day. The LOAEL (rat [2]) was greater than 20 mg/kg/day, the NEL (rat [2]) was less than 20 mg/kg/day and the NOAEL (rat [2]) was no less than 20 mg/kg/day.
`S=C1NCCN1` [Ethylene thiourea] showed an LOAEL (rat [3]; [16]) greater than 150 mg/kg/day, an NOAEL (rat [3]; [16]) of no less than 150 mg/kg/day and an LEL (rat [3]; [17]) of 12 mg/kg/day. The NEL (rat [3]; [17]) was less than 12 mg/kg/day, the LEL (dog [4]) was 1.79 mg/kg/day and the LOAEL (dog [4]) was 1.79 mg/kg/day. The NEL (dog [4]) was 0.19 mg/kg/day, the NOAEL (dog [4]) was 0.19 mg/kg/day and the LOAEL (rat [5]; systemic / pathology microscopic / thyroid gland / hyperplasia + systemic / pathology microscopic / thyroid gland / hypertrophy) was 1.25 mg/kg/day. It also gave an LEL (rat [5]; [18]) of 1.25 mg/kg/day, an NEL (rat [5]; [18]) of 0.125 mg/kg/day and an NOAEL (rat [5]; [18]) of 0.125 mg/kg/day.
With `CC(C)(C)N(NC(=O)c1ccc(Cl)cc1)C(=O)c1ccccc1` [Halofenozide] the LEL (rabbit; [19]) was 20 mg/kg/day, the LOAEL (rabbit; [19]) was 20 mg/kg/day and the NEL (rabbit; [20]) was 10 mg/kg/day. The NOAEL (rabbit; [20]) was 10 mg/kg/day, the LEL (rat [6]) was 52.7 mg/kg/day and the LOAEL (rat [6]) was 52.7 mg/kg/day. The NEL (rat [6]) was 5.53 mg/kg/day, the NOAEL (rat [6]) was 5.53 mg/kg/day and the LEL (dog [7]) was 11.5 mg/kg/day. For the same molecule, the LOAEL (dog [7]) was 11.5 mg/kg/day, the NEL (dog [7]) was 4 mg/kg/day and the NOAEL (dog [7]) was 4 mg/kg/day. It also gave an LEL (rat [8]; [21]) of 180 mg/kg/day, an LOAEL (rat [8]; [21]) of 180 mg/kg/day and an NEL (rat [8]; [21]) of 30 mg/kg/day. It also gave an NOAEL (rat [8]; [21]) of 30 mg/kg/day, an LEL (rat [8]; [22]) of 180 mg/kg/day and an LOAEL (rat [8]; [22]) of 180 mg/kg/day. For the same molecule, the NEL (rat [8]; [22]) was 30 mg/kg/day and the NOAEL (rat [8]; [22]) was 30 mg/kg/day.
Molecule `CCc1cccc(C)c1N(C(=O)CCl)C(C)COC` (stereo not drawn) [Metolachlor] has an LEL (mouse [9]) of 450 mg/kg/day, an LOAEL (mouse [9]) of 450 mg/kg/day and an NEL (mouse [9]) of 150 mg/kg/day. It also gave an NOAEL (mouse [9]) of 150 mg/kg/day, an LEL (dog [10]) of 33 mg/kg/day and an LOAEL (dog [10]) of 33 mg/kg/day. The NEL (dog [10]) was 9.7 mg/kg/day, the NOAEL (dog [10]) was 9.7 mg/kg/day and the LOAEL (dog [11]; [23]) was 29.4 mg/kg/day. The LEL (dog [11]; [24]) was 29.4 mg/kg/day, the NEL (dog [11]; [24]) was 8.77 mg/kg/day and the NOAEL (dog [11]; [24]) was 8.77 mg/kg/day. The LEL (rat [12]; [25]) was 1000 mg/kg/day, the LOAEL (rat [12]; [25]) was 1000 mg/kg/day and the NEL (rat [12]; [25]) was 300 mg/kg/day. For the same molecule, the NOAEL (rat [12]; [25]) was 300 mg/kg/day, the LOAEL (rat [12]; [26]) was 1000 mg/kg/day and the NEL (rat [12]; [26]) was 100 mg/kg/day. The NOAEL (rat [12]; [26]) was 300 mg/kg/day, the LEL (rat [12]; group: maternal, systemic / in life observation / clinical signs / salivation) was 300 mg/kg/day and the LOAEL (dog [13]; [23]) was 29.4 mg/kg/day. It also gave an LEL (dog [13]; [24]) of 29.4 mg/kg/day, an NEL (dog [13]; [24]) of 8.77 mg/kg/day and an NOAEL (dog [13]; [24]) of 8.77 mg/kg/day.
